Experiment [1] is described as follows: DRUGMATRIX: Glutamate, Kainate radioligand binding (ligand: [3H] Kainic acid). It counts as cell membranes, Rattus norvegicus, Wistar, Brain, Membrane. The conditions noted are these: Not Active = under 50% inhibition at 10 µM.
Experiment [2] concerns the target T1, Angiotensin-converting enzyme (Oryctolagus cuniculus, UniProt P12822).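 Also: enzymatic inhibition of angiotensin-converting enzyme measured with FAPGG as the substrate; in other assays of this panel Not Active means under 50% inhibition at 10 µM.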
T1 sequence (P12822 whole entry): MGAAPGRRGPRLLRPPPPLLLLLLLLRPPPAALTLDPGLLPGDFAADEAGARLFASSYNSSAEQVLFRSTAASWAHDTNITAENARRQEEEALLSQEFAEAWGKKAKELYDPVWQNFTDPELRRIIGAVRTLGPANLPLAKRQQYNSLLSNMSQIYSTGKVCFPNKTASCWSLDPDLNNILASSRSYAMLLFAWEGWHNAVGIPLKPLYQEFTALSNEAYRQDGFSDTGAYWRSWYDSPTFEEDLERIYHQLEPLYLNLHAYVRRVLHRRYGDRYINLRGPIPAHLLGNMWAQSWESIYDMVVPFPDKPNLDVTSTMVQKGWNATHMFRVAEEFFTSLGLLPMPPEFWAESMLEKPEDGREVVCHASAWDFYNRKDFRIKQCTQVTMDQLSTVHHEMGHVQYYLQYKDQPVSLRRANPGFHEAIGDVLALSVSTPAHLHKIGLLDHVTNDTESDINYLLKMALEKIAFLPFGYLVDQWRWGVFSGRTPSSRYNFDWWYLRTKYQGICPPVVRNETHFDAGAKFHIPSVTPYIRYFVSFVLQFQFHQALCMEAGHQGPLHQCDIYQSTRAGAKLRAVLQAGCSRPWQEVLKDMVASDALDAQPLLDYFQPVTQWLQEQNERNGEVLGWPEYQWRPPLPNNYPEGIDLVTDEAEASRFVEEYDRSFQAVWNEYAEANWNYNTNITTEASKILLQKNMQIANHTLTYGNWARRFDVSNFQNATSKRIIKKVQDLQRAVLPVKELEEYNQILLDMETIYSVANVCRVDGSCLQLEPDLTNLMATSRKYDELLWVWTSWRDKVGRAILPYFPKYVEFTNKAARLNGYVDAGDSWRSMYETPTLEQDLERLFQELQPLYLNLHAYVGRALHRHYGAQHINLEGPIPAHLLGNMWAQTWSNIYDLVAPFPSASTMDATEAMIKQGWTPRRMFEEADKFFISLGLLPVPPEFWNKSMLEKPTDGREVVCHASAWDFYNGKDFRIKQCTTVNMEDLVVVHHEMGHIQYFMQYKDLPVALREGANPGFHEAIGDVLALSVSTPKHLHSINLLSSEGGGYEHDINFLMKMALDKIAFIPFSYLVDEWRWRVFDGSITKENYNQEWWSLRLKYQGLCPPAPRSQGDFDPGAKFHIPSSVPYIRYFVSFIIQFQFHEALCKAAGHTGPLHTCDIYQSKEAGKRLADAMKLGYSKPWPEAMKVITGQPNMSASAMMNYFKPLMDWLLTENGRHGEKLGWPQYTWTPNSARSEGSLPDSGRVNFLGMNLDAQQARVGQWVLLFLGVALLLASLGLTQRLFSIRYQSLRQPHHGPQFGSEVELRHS
Briefly: biochemical. The format is tissue-based, Lung.

Another experiment concerns the target T2, Progesterone receptor (Bos taurus, UniProt Q690N0).
T2 sequence (Q690N0 whole entry): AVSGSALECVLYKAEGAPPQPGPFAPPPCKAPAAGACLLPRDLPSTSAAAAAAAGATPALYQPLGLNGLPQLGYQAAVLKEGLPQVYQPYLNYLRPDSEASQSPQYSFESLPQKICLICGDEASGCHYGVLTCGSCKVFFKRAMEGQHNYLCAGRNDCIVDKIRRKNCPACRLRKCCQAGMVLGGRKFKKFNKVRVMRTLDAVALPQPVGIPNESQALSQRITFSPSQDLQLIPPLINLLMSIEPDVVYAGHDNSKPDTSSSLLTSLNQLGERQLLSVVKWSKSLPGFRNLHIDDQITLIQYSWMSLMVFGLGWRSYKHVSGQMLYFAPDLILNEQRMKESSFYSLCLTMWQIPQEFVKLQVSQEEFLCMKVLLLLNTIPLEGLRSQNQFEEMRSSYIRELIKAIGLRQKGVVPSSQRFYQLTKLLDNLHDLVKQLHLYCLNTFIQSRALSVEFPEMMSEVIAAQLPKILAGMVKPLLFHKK
Nature of the experiment: DRUGMATRIX: Progesterone radioligand binding (ligand: [3H] R-5020). It counts as tissue-based, Uterus. The following applies: Not Active = under 50% inhibition at 10 µM.

Experiment [3] is described as follows: DRUGMATRIX: Phorbol Ester radioligand binding (ligand: [3H] PDBu). It counts as cell membranes, Mus musculus, ICR, Brain, Membrane. The following applies: Not Active = under 50% inhibition at 10 µM.
Experiment [4] can be described thus: DRUGMATRIX: Atrial Natriuretic Factor (ANF) radioligand binding (ligand: [125I] ANF (rat)). It counts as cell membranes, Cavia porcellus, Dunkin-Hartley, Adrenal gland, Membrane. The conditions noted are these: Not Active = under 50% inhibition at 10 µM.
Experiment [5] has as its target C-C chemokine receptor type 2 (Homo sapiens, UniProt P41597). It counts as cell membranes, CHO-K1, Membrane. Also: in other assays of this panel Not Active means under 50% inhibition at 10 µM.
In a further experiment the target is T3, Thromboxane-A synthase (Homo sapiens, UniProt P24557).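 Also: enzyme inhibition assay with PGH2 supplied as substrate; in other assays of this panel Not Active means under 50% inhibition at 10 µM.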
T3 sequence (P24557 whole entry): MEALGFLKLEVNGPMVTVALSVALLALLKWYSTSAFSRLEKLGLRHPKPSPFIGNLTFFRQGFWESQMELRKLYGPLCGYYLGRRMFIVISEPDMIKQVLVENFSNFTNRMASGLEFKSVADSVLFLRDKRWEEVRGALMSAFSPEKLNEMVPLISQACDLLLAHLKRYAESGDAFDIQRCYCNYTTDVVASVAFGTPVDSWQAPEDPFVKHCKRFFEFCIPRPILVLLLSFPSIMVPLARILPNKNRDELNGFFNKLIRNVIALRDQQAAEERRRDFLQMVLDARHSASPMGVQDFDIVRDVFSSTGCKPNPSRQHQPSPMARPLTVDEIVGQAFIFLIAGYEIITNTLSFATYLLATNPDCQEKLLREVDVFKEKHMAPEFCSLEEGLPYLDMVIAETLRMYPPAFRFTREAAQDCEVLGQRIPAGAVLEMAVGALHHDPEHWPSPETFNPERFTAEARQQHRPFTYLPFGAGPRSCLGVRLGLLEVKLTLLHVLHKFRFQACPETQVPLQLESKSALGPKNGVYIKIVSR
Briefly: biochemical. The format is tissue-based, Platelet.

A short description of experiment [6]: DRUGMATRIX: beta-Lactamase enzyme inhibition (substrate: Nitrocefin). The following applies: Not Active = under 50% inhibition at 10 µM. On the set-up: species or system Bacillus cereus.
A short description of experiment [7]: DRUGMATRIX: GABAA, Flunitrazepam, Central radioligand binding (ligand: [3H] Flunitrazepam). It counts as cell membranes, Rattus norvegicus, Wistar, Brain, Membrane. The conditions noted are these: Not Active = under 50% inhibition at 10 µM.
Experiment [8] can be described thus: DRUGMATRIX: Calcium Channel Type L, Benzothiazepine radioligand binding (ligand: [3H] Diltiazem). The format is cell membranes, Rattus norvegicus, Wistar, Brain, Membrane. The following applies: Not Active = under 50% inhibition at 10 µM.

Chain of C-C chemokine receptor type 2 (P41597 whole entry): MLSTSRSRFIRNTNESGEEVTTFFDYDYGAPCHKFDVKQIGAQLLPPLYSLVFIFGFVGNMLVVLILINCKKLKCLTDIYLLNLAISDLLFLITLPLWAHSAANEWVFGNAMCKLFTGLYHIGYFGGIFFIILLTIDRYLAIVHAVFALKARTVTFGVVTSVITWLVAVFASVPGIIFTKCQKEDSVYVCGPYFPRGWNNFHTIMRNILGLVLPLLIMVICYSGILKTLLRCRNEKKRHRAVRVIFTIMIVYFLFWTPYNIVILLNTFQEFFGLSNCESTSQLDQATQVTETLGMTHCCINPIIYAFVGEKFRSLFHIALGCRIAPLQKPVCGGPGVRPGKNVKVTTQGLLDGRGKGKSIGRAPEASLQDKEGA

By IC50 is commonly meant the midpoint of a concentration-inhibition curve. The Ki is a dissociation constant, usually derived from enzyme kinetics or from competition with a known ligand. In the case of `COc1c(C)c2c(c(O)c1C/C=C(\C)CCC(=O)OCCN1CCOCC1)C(=O)OC2` [MYCOPHENOLATE MOFETIL], the IC50 entry (in experiment [1]; in experiment [2]; on Progesterone receptor; in [3]; in experiment [4]; in [5] (cho-k1)) was “Not Active” throughout. The IC50 result (against Thromboxane-A synthase (platelet); in [6]; in experiment [7]; in experiment [8]) was “Not Active” throughout. Also, the Ki entry in [1], in experiment [3], in experiment [4], in experiment [6], in experiment [7] and in [8] was “Not Active” throughout.

Regarding `COC(=O)C1=C(C)NC(C)=C(C(=O)OC)C1c1ccccc1[N+](=O)[O-]` [NIFEDIPINE], the 50% inhibitory concentration (IC50) entry is “Not Active” in experiment [1]; “Not Active” in experiment [2]; “Not Active” on Progesterone receptor; “Not Active” in [3]; “Not Active” in experiment [4]; 2190 nM in [5] (read-out: IC50). Also, the IC50 is 18600 nM at Thromboxane-A synthase (read-out: IC50), “Not Active” in experiment [6], “Not Active” in experiment [7] and 8.67 nM in [8] (read-out: IC50). Further, the Ki entry in experiment [1] was “Not Active”; in experiment [3], “Not Active”; in experiment [4] it was “Not Active”; in experiment [5] (read-out: Ki), 847 nM; in [6], “Not Active”; in [7], “Not Active”. The Ki in experiment [8] (read-out: Ki) is 7.71 nM.

On to `NNc1ccccc1` [PHENYLHYDRAZINE], for which the IC50 result (in [1]; in [2]; at Progesterone receptor; in experiment [3]; in [4]; in [5] (cho-k1)) was “Not Active” in each case. The IC50 result (against Thromboxane-A synthase (platelet); in experiment [6]; in experiment [7]; in [8]) was “Not Active” throughout. Moreover, the Ki entry in experiment [1], in experiment [3], in [4], in [6], in experiment [7] and in experiment [8] was “Not Active” throughout.

On to `CC(=O)[C@H]1CC[C@H]2[C@@H]3CCC4=CC(=O)CC[C@]4(C)[C@H]3CC[C@]12C` [PROGESTERONE], for which the IC50 result was “Not Active” in [1]; “Not Active” in experiment [2]; 28 nM at Progesterone receptor (read-out: IC50); “Not Active” in experiment [3]; “Not Active” in [4]; “Not Active” in experiment [5] (cho-k1). Further, the IC50 result (against Thromboxane-A synthase (platelet); in experiment [6]; in experiment [7]; in experiment [8]) was “Not Active” throughout. In addition, the Ki entry in [1] is “Not Active”; at Progesterone receptor (read-out: Ki), 3.62 nM; in [3], “Not Active”; in experiment [4], “Not Active”; in [6] it was “Not Active”; in experiment [7], “Not Active”. In experiment [8], the Ki result is listed as “Not Active”.

On to `NC(=O)c1ncn([C@@H]2O[C@H](CO)[C@@H](O)[C@H]2O)n1` [RIBAVIRIN], for which the IC50 entry (in experiment [1]; in [2]; at Progesterone receptor; in experiment [3]; in experiment [4]; in [5] (cho-k1)) was “Not Active” in each case. The IC50 result (against Thromboxane-A synthase (platelet); in experiment [6]; in experiment [7]; in experiment [8]) was “Not Active” in each case. Also, the inhibition constant Ki entry in [1], in experiment [3], in experiment [4], in experiment [6], in experiment [7] and in [8] was “Not Active” each time.

For `O=[N+]([O-])c1cc([As](=O)(O)O)ccc1O` [ROXARSONE], the IC50 entry (in [1]; in experiment [2]; on Progesterone receptor; in experiment [3]; in experiment [4]; in experiment [5] (cho-k1)) was “Not Active” in each case. Besides, the IC50 entry (on Thromboxane-A synthase (platelet); in experiment [6]; in experiment [7]; in experiment [8]) was “Not Active” in each case. Moreover, the inhibition constant (Ki) entry (in experiment [1]; in [2]; at Progesterone receptor; in experiment [3]; in [4]; in experiment [5] (cho-k1)) was “Not Active” each time. The Ki result (on Thromboxane-A synthase (platelet); in [6]; in [7]; in experiment [8]) was “Not Active” in each case.

Source of the values: ChEMBL document CHEMBL1909046, “DrugMatrix in vitro pharmacology data”.
